Counter-ions that a name gives are not always drawn.
target: T1, synaptosomal serotonin uptake (Rattus norvegicus, UniProt P31652); assay: inhibition of synaptosomal reuptake of tritiated serotonin (5-HT inhibition assay); type: biochemical; design: key: *: Compounds designated with an asterisk are most preferred, based on abilities to inhibit synoptosomal serotonin uptake; conditions: among compounds with IC50 less than 100 nM
T1 construct: from tissue
Protocol: Determination of endogenous monoaminergic re-uptake inhibition values both for serotonin and norepinephrine was accomplished using test methods described by P. Skolnick, et al., Br. J. Pharmacology, (1985), 86, pp. 637-644; with only minor modifications. In vitro IC50 (nM) test values were determined for representative compounds of Formula I based on their inhibition of synaptosomal re-uptake of tritiated serotonin.
Compounds of the invention were tested for their ability to inhibit serotonin reuptake. Determination of endogenous monoaminergic reuptake inhibition values for serotonin was accomplished using test methods described by P. Skolnick et al., Br. J. Pharmacology (1985), 86, pp. 637-644; with only minor modifications.
In vitro IC50 (nM) test values were determined for representative compounds of Formula I based on their inhibition of synaptosomal reuptake of tritiated serotnin.

T1 sequence (P31652 whole entry): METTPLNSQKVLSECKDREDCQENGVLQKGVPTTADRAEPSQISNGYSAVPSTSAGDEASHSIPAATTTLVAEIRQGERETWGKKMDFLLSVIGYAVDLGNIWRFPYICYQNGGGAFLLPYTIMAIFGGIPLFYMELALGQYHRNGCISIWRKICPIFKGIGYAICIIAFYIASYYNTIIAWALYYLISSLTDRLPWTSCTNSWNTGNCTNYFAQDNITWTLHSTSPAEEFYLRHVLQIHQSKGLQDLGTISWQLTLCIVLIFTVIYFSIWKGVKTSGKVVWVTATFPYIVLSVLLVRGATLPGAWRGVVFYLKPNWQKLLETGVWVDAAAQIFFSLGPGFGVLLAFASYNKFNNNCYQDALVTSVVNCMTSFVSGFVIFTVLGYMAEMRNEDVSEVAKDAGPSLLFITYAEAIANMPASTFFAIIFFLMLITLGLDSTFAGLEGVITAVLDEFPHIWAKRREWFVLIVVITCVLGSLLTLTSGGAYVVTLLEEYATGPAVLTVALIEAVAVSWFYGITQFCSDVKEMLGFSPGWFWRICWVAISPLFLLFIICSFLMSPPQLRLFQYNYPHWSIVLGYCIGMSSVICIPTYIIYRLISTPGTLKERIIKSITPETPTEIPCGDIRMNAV

| SMILES | asterisk designation: most preferred, based on ability to inhibit synaptosomal serotonin uptake |
| --- | --- |
| COc1cccnc1N1CCN(CCCC2CSc3ccccc32)C(C)C1 (stereo not shown) [Example 7, hydrochloride] | * |
| COc1cncnc1N1CCN(CCCc2coc3ccc(Cl)cc23)C(C)C1.Cl (stereo not shown) [Example 27, 1-[3-(5-chlorobenzo[b]furan-3-yl)propyl]-4-(5-methoxy-4-pyrimidinyl)-2-methylpiperazine hydrochloride] | * |
| COc1cccnc1N1CCN(CCC2CSc3ccccc32)CC1.Cl (stereo not shown) [Example 17, 1-[2-(2,3-dihydro-benzo[b]thien-3-yl)ethyl]-4-(3-methoxy-2-pyridinyl)piperazine hydrochloride] | * |
| COc1cccnc1N1CCN(CCCc2coc3ccc(C)cc23)CC1.Cl [Example 29, 1-[3-(5-methylbenzo[b]furan-3-yl)propyl]-4-(3-methoxy-2-pyridinyl)piperazine hydrochloride] | * |
| COc1cccnc1N1CCN(CCC2CSc3ccccc32)C(C)C1.Cl (stereo not shown) [Example 6, 1-[2-(2,3-dihydro-benzo[b]thien-3-yl)ethyl]-4-(3-methoxy-2-pyridinyl)-2-methylpiperazine hydrochloride] | * |
| COc1cncnc1N1CCN(CCCc2coc3ccccc23)C(C)C1 (stereo not shown) [Example 32, 1-[3-(benzo[b]furan-3-yl)propyl]-4-(5-methoxy-4-pyrimidinyl-2-methylpiperazine hydrochloride] | * |
| COc1cccnc1N1CCN(CCc2coc3ccccc23)CC1.Cl [Example 33, 1-[2-(benzo[b]furan-3-yl)ethyl]-4-(3-methoxy-2-pyridinyl)piperazine hydrochloride] | * |
| COc1cncnc1N1CCN(CCCc2csc3ccc(F)cc23)C(C)C1.Cl (stereo not shown) [Example 63, 1-[3-(5-fluorobenzo[b]thien-3-yl)propyl]-4-(5-methoxy-4-pyrimidinyl)-2-methylpiperazine hydrochloride] | * |
| COc1cccnc1N1CCN(CCCc2coc3ccc(Cl)cc23)CC1.Cl [Example 25, 1-[3-(5-chlorobenzo[b]furan-3-yl)propyl]-4-(3-methoxy-2-pyridinyl)piperazine hydrochloride] | * |
| COc1cccnc1N1CCN(CCc2csc3ccccc23)C(C)C1.Cl (stereo not shown) [Example 58, 1-[2-(benzo[b]thien-3-yl)ethyl]-4-(3-methoxy-2-pyridinyl)-2-methylpiperazine hydrochloride] | * |
| COc1cccnc1N1CCN(CCCc2coc3ccccc23)CC1.Cl [Example 31, 1-[3-(benzo[b]furan-3-yl)propyl]-4-(3-methoxy-2-pyridinyl)piperazine hydrochloride] | * |
| COc1cccnc1N1CCN(CCCc2csc3ccccc23)C(C)C1.Cl (stereo not shown) [Example 41, 1-[3-(benzo[b]thien-3-yl)propyl]-4-(3-methoxy-2-pyridinyl)-2-methylpiperazine hydrochloride] | * |
| COc1cncnc1N1CCN(CCCc2csc3ccc(F)cc23)CC1.Cl [Example 52, 1-[3-(5-fluorobenzo[b]thien-3-yl)propyl]-4-(5-methoxy-4-pyrimidinyl)piperazine hydrochloride] | * |
| COc1cc(Cl)cnc1N1CCN(CCCc2csc3ccccc23)C(C)C1.Cl (stereo not shown) [Example 60, 1-[3-(benzo[b]thien-3-yl)propyl]-4-(5-chloro-3-methoxy-2-pyridinyl)-2-methylpiperazine hydrochloride] | * |
| COc1cncnc1N1CCN(CCCc2csc3ccccc23)CC1.Cl [Example 59, 1-[3-(benzo[b]thien-3-yl)propyl]-4-(5-methoxy-4-pyrimidinyl)piperazine hydrochloride] | * |
| COc1cncnc1N1CCN(CCCc2csc3ccccc23)CC1C.Cl (stereo not shown) [Example 51, 1-[3-(benzo[b]thien-3-yl)propyl]-4-(5-methoxy-4-pyrimidinyl)-3-methylpiperazine hydrochloride] | * |
| COc1cncnc1N1CCN(CCCc2csc3ccc(C#N)cc23)CC1.Cl [Example 65, 1-[3-(5-cyanobenzo[b]thien-3-yl)propyl]-4-(5-methoxy-4-pyrimidinyl)piperazine hydrochloride] | * |
| COc1cncnc1N1CCN(CCCc2csc3ccccc23)C(C)C1.Cl (stereo not shown) [Example 50, 1-[3-(benzo[b]thien-3-yl)propyl]-4-(5-methoxy-4-pyrimidinyl)-2-methylpiperazine hydrochloride] | * |
| COc1cccnc1N1CCN(CCc2csc3ccccc23)CC1.Cl [Example 57, 1-[2-(benzo[b]thien-3-yl)ethyl]-4-(3-methoxy-2-pyridinyl)piperazine hydrochloride] | * |
| COc1cncnc1N1CCN(CCCc2csc3ccc(F)cc23)CC1C.Cl (stereo not shown) [Example 55, 1-[3-(5-fluorobenzo[b]thien-3-yl)propyl]-4-(5-methoxy-4-pyrimidinyl)-3-methylpiperazine hydrochloride] | * |
| COc1cncnc1N1CCN(CCCc2coc3ccccc23)CC1C.Cl (stereo not shown) [Example 28, 1-[3-(benzo[b]furan-3-yl)propyl]-4-(5-methoxy-4-pyrimidinyl)-3-methylpiperazine hydrochloride] | * |
| COc1cncnc1N1CCN(CCc2csc3ccccc23)CC1C.Cl (stereo not shown) [Example 64, 1-[2-(benzo[b]thien-3-yl)ethyl]-4-(5-methoxy-4-pyrimidinyl)-3-methylpiperazine hydrochloride] | * |
| COc1cncnc1N1CCN(CCCc2coc3ccc(C)cc23)C(C)C1.Cl (stereo not shown) [Example 30, 1-[3-(5-methylbenzo[b]furan-3-yl)propyl]-4-(5-methoxy-4-pyrimidinyl)-2-methylpiperazine hydrochloride] | * |
| COc1cccnc1N1CCN(CCCc2coc3ccc(F)cc23)CC1.Cl [Example 20, 1-[3-(5-fluorobenzo[b]furan-3-yl)propyl]-4-(3-methoxy-2-pyridinyl)piperazine hydrochloride] | * |
| COc1cccnc1N1CCN(CCCc2csc3ccccc23)CC1.O=C(O)/C=C/C(=O)O [Example 56, 1-[3-(benzo[b]thien-3-yl)propyl]-4-(3-methoxy-2-pyridinyl)piperazine fumarate] | * |
